Laboratory results taken from US7528205B2, “Photo radical generator, photo sensitive resin composition and article” (Dai Nippon Printing Co., Ltd., priority 2003, dated 2009).
Like-named read-outs stand apart in the source and are kept apart here.

What was measured:
[1] = Evaluation of ultraviolet absorption; type: physicochemical; conditions: for ultraviolet absorption bottom edge / ultraviolet absorption maximum wavelength: acetonitrile solution, 1.0×10^−5 mol/L
Experimental: Using an acetonitrile solution containing 1.0×10^−5 mol/L of each of the compounds 1 and 15, each ultraviolet absorption spectrum was measured.

[2] = Evaluation of heat resistance (thermogravimetry, 5% reduction in weight temperature); type: physicochemical; conditions: for 5% heat decomposition temperature: temperature rise rate 10° C./min, nitrogen atmosphere
Experimental: Herein, the 5% reduction in weight temperature means a temperature at which the weight of a sample is reduced […] when a decrement of weight is measured using a thermogravimetric analyzer according to the same method as in the examples of the present invention as will be explained later. Similarly, the 10% reduction in weight temperature means a temperature at which the weight of a sample is reduced […].
Using a differential type differential thermal balance (product name: TG8120; manufactured by Rigaku Corporation), the 5% reduction in weight temperature of each of the compounds 1 to 15 was measured at a temperature rise rate of 10° C./min in a nitrogen atmosphere. As comparative examples, the comparative compounds 2 and 3 and a self-cleavage type photoradical generator Irgacure 907 (trademark; manufactured by Ciba Specialty Chemicals) were similarly measured.

[3] = Evaluation 1 of curability (coating layer with trifunctional acrylate, UV exposure, no hydrogen donor); conditions: for Reaction rate (decrement of double bond): nitrogen; for Compatibility with M305: imide part/double bond 1/50
Experimental: (§1) Using a trifunctional acrylate (product name; M-305, manufactured by Toagosei Co., Ltd.) as polyfunctional monomers, the compounds 1 to 14, the comparative compounds 2 and 3 and a photoradical generator Irgacure 907 (product name; manufactured by Ciba Specialty Chemicals) were mixed with each polyfunctional monomer to prepare each THF solution of each photoradical generator.
(§2) The mixing was performed so that a ratio of the photoradical generator to the polyfunctional monomer is such that number of imide part of each of the compounds 1 to 14 and the comparative compounds 2 and 3 with respect to number of double bond of the polyfunctional monomer is 1/50 (number of imide part/number of polyfunctional monomer) or, in the case of Irgacure, number of the molecule with respect to number of double bond of the polyfunctional monomer is 1/50 (number of Irgacure 907/number of polyfunctional monomer).
(§3) Each solution was applied by spin coating to a glass substrate on which chromium was sputtered to obtain coating layers. Also, a layer without initiator component or comparative compounds and only containing trifunctional acrylate was formed as a blank.
(§4) A decrement of the peak at 810 cm^−1 was recorded with time by using an infrared spectrometer (product name: FTS6000; manufactured by BIO RAD) while exposing the above coating layer to ultraviolet rays, to confirm the degree of the disappearance of a double bond. The atmosphere around the sample during measurement was replaced with nitrogen. As the UV exposure apparatus, UV Spot Cure SP-III type (standard reflecting mirror type) manufactured by Ushio Inc. was used and as the UV lamp, USH-255BY (manufactured by Ushio Inc.) was used.

[4] = Evaluation of transparency (transmittance of cured coating layer); type: physicochemical
Experimental: Using a trifunctional acrylate (product name; M305, manufactured by Toagosei Co., Ltd.) as polyfunctional monomers, each of the compound 1, a combination of the compound 1 and triethanolamine of the same number of mol and a photoradical generator Irgacure 907 (Irg907) were mixed to prepare each THF solution in the same ratio as the Evaluation of curability. Each solution was applied by spin coating to a glass substrate and heated on a 50° C. hot plate for one minute. Then, the substrate was exposed to light from a high pressure mercury lamp at an intensity of 2,000 mJ/cm^2 based on h-rays by using a hand-operated exposure apparatus (MA-1200, manufactured by Dainippon Screen Mfg. Co., Ltd.), to obtain a coating layer having a thickness of 4.2±0.05 μm. The transmittance of each coating layer was measured by a spectrometer (UV-2550 (PC)S GLP; manufactured by Shimadzu Corporation).

[5] = Evaluation 2 of curability (triethanolamine added as hydrogen donor)
Experimental: as §1, §2, §3, §4
In order to confirm whether or not the seven-membered ring imide structure-containing group was a hydrogen-drawing type radical generator, triethanolamine was added to THF solutions containing each of the compositions 1 to 14 used in the aforementioned Evaluation 1 of curability and trifunctional acrylate M305, coating layers were formed in the same manner as in the aforementioned Evaluation 1 of curability, and evaluated similarly. As comparative examples, each of the comparative compounds 1 and 3 was used.

Solubility test = type: physicochemical; conditions: for solubility at 3 h: organic solvent or mixture, thermodynamic from solid
Experimental: As for the compound 1 and the comparative compound 3, a solubility test was performed respectively. Each sample was added to each solvent or monomer so as to be 0.5 mol/L at 20° C. After radiating ultrasonic wave for 3 hours, one with a precipitate was concluded as “0” and one without a precipitate was concluded as “x”.

[6] = 0.5 mol/L at 20° C., ultrasonic wave 3 hours

Row | Compound | ultraviolet absorption bottom edge [1] | ultraviolet absorption maximum wavelength [1] | 5% heat decomposition temperature [2] | Reaction rate (decrement of double bond) ([3]; Exposure 50 mJ) | Reaction rate (decrement of double bond) ([3]; Exposure 100 mJ) | Reaction rate (decrement of double bond) ([3]; Exposure 400 mJ) | Compatibility with M305 [3] | Compatibility with M305 [5] | Reaction rate (decrement of double bond) ([5]; Exposure 50 mJ) | Reaction rate (decrement of double bond) ([5]; Exposure 100 mJ) | Reaction rate (decrement of double bond) ([5]; Exposure 400 mJ) | Solubility in Acetone (Solubility test; [6]) | Solubility in Chloroform (Solubility test; [6]) | Solubility in Dimethylformamide (Solubility test; [6]) | Solubility in Tetrahydrofuran (Solubility test; [6]) | further results
1 | COCCn1c(=O)c2cc([N+](=O)[O-])ccc2c2ccc([N+](=O)[O-])cc2c1=O [Compound 15] | about 320 nm | about 240 nm | 280 °C | – | – | – | – | – | – | – | – | – | – | – | – | absorption at 365 nm (emitting wavelength of high pressure mercury lamp) [1]: has absorption at a wavelength of 365 nm; improvement of heat decomposition temperature in comparison with the compound 1 [2]: ≥ 50 °C
2 | COCCn1c(=O)c2ccccc2c2ccccc2c1=O [Compound 1] | about 320 nm | about 240 nm | 224 °C | 0.3% | 0.5% | 1.1% | ∘ | ∘ | 17.3% | 23.6% | 36.6% | ∘ | ∘ | ∘ | ∘ | transmittance of cured layer ([4]; M305 coating layer 4.2±0.05 μm, 2,000 mJ/cm^2, compared to Irg907): high in transmittance with respect to the light of 410 nm or less; transmittance of cured layer ([4]; triethanolamine of the same number of mol added, M305 coating layer 4.2±0.05 μm): almost same in transmittance as in the case of only the compound 1; solubility, comparison in words (Solubility test): superior in solubility to the comparative compound 3; Solubility in Ethyl acetate (Solubility test; [6]): ∘; Solubility in Ethyl lactate (Solubility test; [6]): ∘; Solubility in Methyl acrylate (Solubility test; [6]): ∘; Solubility in Pentaerythritol triacrylate (M305) (Solubility test; [6]): ∘; Solubility in Propylene glycol monoethyl ether acetate (Solubility test; [6]): ∘
3 | COCCN1C(=O)c2cccc3cccc(c23)C1=O [compound 3, reference compound] | – | – | 229 °C | 1.0% | 2.5% | 26.6% | ∘ | ∘ | 3.3% | 5.4% | 11.1% | ∘ | ∘ | ∘ | ∘ | solubility at 3 h (Solubility test; ethyl acetate, 0.5 mol/L at 20° C., ultrasonic wave 3 hours, read-out: Solubility in Ethyl acetate): < 500 mM; solubility at 3 h (Solubility test; ethyl lactate, 0.5 mol/L at 20° C., ultrasonic wave 3 hours, read-out: Solubility in Ethyl lactate): < 500 mM; solubility at 3 h (Solubility test; methyl acrylate, 0.5 mol/L at 20° C., ultrasonic wave 3 hours, read-out: Solubility in Methyl acrylate): < 500 mM; solubility at 3 h (Solubility test; pentaerythritol triacrylate (M305), 0.5 mol/L at 20° C., ultrasonic wave 3 hours, read-out: Solubility in Pentaerythritol triacrylate (M305)): < 500 mM; solubility at 3 h (Solubility test; propylene glycol monoethyl ether acetate, 0.5 mol/L at 20° C., ultrasonic wave 3 hours, read-out: Solubility in Propylene glycol monoethyl ether acetate): < 500 mM
